The nature of data set [1]: blockers of HIV-1 ZM109 envelope-driven cell-cell fusion – HeLa effector, CEM target cells, luciferase, cherry-pick, dose response (AID 652058).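 Also: luciferase signal from HIV-1 Env mediated cell-cell fusion of effector and target cells.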 Format: functional, cell-based.
Data set [2] is described as follows: blockers of HIV-1 envelope-mediated cell-cell fusion – cherry-pick, dose response (AID 652057). The class given is functional, cell-based.
A short description of data set [3]: HIV-1 AD8 envelope cell-cell fusion blockers – cherry-pick, dose response (AID 652062).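 Also: luciferase signal from cell-cell fusion driven by HIV-1 clade B AD8 Env; potency is for inhibitors of fusion seen as a drop in luminescence.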 The class given is functional, cell-based.
Data set [4] is described as follows: off-target signal loss in HeLa-CEM21 co-culture – HeLa F-luc CTL cells, cherry-picked, counter-screen for HIV-1 Env fusion inhibitor project, dose response (AID 652040).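 Also: potency for signal decrease marking cytotoxic or nonspecific inhibition.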 Format: functional, cell-based. For orientation: A counterscreen serves to expose hits that act by an unwanted route or on another target.
Data set [5] deals with Streptococcus. The data set can be described thus: GAS UMAA2166 growth inhibition – luminescence, BacTiterGlo, counter-screen for streptokinase expression inhibitor project, dose response (AID 1915).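 Also: potency for reduction of bacterial viability or growth.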 The class given is functional, organism-based.
Data set [6] concerns the target Prothrombin (Homo sapiens, UniProt P00734). Briefly: Thrombin 1536 HTS Dose Response Confirmation. [Related pubchem assays: 1046 (Thrombin 1536 HTS; hits were confirmed in this assay)]. Format: functional.
The target of data set [7] is T1, Streptokinase A (Streptococcus pyogenes serotype M1, UniProt P10520).
T1 sequence (P10520 whole entry): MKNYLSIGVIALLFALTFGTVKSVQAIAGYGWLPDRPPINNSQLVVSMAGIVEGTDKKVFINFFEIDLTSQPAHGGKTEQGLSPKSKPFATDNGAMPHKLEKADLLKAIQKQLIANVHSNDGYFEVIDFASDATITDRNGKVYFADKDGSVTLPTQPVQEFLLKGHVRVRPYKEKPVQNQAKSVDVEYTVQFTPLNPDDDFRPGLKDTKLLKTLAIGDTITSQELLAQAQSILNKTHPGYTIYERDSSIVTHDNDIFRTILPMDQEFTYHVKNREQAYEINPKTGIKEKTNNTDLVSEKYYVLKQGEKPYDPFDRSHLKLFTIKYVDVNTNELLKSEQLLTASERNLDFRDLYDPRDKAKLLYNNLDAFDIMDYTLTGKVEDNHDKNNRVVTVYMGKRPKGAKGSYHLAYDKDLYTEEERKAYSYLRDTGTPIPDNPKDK
Briefly: viability-normalized secreted streptokinase activity reduction – plasminogen activation absorbance, OD405, dose response (AID 1914).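 Also: secreted streptokinase activity via plasminogen activation per viability signal from cell pellet.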 Format: functional, Streptococcus pyogenes M1 GAS.

In data set [8] the target is Peroxisome proliferator-activated receptor gamma/Nuclear receptor coactivator 2 (Homo sapiens, UniProt P37231). The class given is functional.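 Also: agonist potency for raising coactivator recruitment to the receptor.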
The target of data set [9] is Peroxisome proliferator-activated receptor gamma/Nuclear receptor coactivator 3 (Homo sapiens, UniProt P37231). The class given is functional.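 Also: agonist potency for raising coactivator recruitment to the receptor.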
Data set [10] concerns the target Peroxisome proliferator-activated receptor gamma/Nuclear receptor coactivator 1 (Homo sapiens, UniProt P37231). The class given is functional.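 Also: agonist potency as compounds enhance coactivator SRC-1 recruitment to PPARgamma.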
Data set [11] addresses T2, Zinc finger protein mex-5 (Caenorhabditis elegans, UniProt Q9XUB2).
T2 sequence (Q9XUB2 whole entry): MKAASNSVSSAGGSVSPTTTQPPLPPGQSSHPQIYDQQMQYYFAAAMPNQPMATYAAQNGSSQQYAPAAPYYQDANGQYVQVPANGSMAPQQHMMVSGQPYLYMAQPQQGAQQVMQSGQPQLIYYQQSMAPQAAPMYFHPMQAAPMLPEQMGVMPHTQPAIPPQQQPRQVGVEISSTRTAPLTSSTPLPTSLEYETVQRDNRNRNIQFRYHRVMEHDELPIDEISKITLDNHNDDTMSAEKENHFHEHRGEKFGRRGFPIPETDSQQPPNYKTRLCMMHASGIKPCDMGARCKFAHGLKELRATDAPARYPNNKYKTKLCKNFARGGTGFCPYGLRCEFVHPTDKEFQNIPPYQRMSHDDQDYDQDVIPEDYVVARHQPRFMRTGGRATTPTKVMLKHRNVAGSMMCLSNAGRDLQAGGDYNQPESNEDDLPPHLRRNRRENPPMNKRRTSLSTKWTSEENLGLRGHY
The data set can be described thus: potency of MEX-5 RNA-binding blockers – biochemical, C. elegans, fluorescence polarization, dose response (AID 1960).

Data set [12] has as its target T3, Polyadenylate-binding protein 1 (Homo sapiens, UniProt P11940). The data set can be described thus: MLLE domain peptide-binding blockers, IC50 – biochemical, fluorescence polarization, FITC-PAM2 peptide, dose response (AID 602259). Format: functional. Conditions: read-out: IC50_Mean.
Data set [13] addresses T3, Polyadenylate-binding protein 1. The data set can be described thus: MLLE binding blockers, Cy5 peptide tracer – biochemical, fluorescence polarization, Cy5-PAM2 peptide, secondary, miRNA deadenylation inhibitor project, dose response (AID 602260). The conditions noted are these: read-out: IC50_Mean. The class given is functional. On the technique in general: In fluorescence polarisation assays a small probe gives low polarisation when free and higher when bound to something large.

For data set [14], the target named is T4, RNA-binding protein pos-1 (Caenorhabditis elegans, UniProt G5EF15).
T4 sequence (G5EF15 whole entry): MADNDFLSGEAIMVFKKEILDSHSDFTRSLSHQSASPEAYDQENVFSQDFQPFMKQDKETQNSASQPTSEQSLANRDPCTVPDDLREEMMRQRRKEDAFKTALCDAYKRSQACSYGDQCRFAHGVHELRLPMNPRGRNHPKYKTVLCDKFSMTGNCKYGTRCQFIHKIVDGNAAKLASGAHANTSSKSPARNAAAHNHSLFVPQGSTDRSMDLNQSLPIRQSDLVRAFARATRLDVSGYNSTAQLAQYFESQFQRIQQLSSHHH
Briefly: disruptors of C. elegans POS-1 RNA interaction – biochemical, fluorescence polarization, dose response (AID 1964).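 Also: purified POS-1 fused to maltose binding protein made in E. coli; potency of compounds blocking POS-1 binding to fluorescent RNA.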

Data set [15] deals with Cytochrome P450 3A4 (Homo sapiens, UniProt P08684).
The target in data set [16] is T5, Ubiquitin-conjugating enzyme E2 N (Homo sapiens, UniProt P61088).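 Also: Dose-response confirmation in a TR-FRET assay detecting UBC13-driven polyubiquitin chain formation, inhibition measured.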
T5 sequence (P61088 whole entry): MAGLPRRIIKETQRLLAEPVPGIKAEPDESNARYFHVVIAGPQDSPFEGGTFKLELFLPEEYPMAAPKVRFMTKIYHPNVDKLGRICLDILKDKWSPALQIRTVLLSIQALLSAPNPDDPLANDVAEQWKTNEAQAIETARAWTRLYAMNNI
Format: functional.

In data set [17] the target is Cytochrome P450 2C9 (Homo sapiens, UniProt P11712).
For data set [18], the target named is Cytochrome P450 2D6 (Homo sapiens, UniProt P10635).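 Also: CYP2D6 member of a cytochrome P450 panel assay.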
Data set [19] can be described thus: blockade of melanocortin 4 receptor signaling – cell-based, plate reader, cherry pick, counter-screen for LGR2 antagonist project, dose response (AID 743444).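 Also: transfected HEK 293 cells stimulated with alpha-MSH peptide; potency of inhibitors of the alpha-MSH evoked signal.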 The class given is functional.
The nature of data set [20]: blockers of bursicon-stimulated LGR2 cAMP reporter – cell-based, HEK293, CRE-luciferase reporter, cherry pick, set 2, dose response (AID 743343).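 Also: transfected cells were stimulated with diluted bursicon conditioned medium after compound addition.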 The class given is functional. On the technique in general: In a reporter assay the amount or activity of a reporter protein is the signal.
Data set [21] deals with T6, Cytochrome P450 1A2 (Homo sapiens, UniProt P05177).
T6 sequence (P05177 whole entry): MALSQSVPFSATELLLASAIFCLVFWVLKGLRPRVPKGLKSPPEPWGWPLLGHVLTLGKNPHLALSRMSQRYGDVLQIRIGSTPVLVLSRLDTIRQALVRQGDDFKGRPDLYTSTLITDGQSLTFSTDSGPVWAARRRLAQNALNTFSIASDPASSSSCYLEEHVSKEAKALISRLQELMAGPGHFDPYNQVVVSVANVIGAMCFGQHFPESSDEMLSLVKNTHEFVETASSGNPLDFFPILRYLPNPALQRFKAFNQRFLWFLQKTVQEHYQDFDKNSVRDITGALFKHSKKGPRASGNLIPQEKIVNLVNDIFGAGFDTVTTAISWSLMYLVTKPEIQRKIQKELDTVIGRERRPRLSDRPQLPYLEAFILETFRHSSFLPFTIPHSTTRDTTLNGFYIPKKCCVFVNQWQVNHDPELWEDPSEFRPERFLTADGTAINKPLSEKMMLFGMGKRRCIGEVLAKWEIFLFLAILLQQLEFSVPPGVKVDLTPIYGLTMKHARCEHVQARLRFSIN

Data set [22] can be described thus: microbe, parasite or virus in culture. Format: functional. Conditions: Mycobacterium tuberculosis.
Data set [23] has as its target Heat shock protein HSP 90-alpha (Homo sapiens, UniProt P07900). The class given is functional, organism-based.
Data set [24] in a line: Luminescence Cell-Based Dose Retest to Confirm Inhibitors of Cancer Stem Cells. [Related pubchem assays (depositor defined):AID2717, AID2721]. The class given is functional. Conditions: Homo sapiens.

Counter-ions that a name gives are not always drawn. Calls of active or inactive are those of the source.

Sequence of Peroxisome proliferator-activated receptor gamma/Nuclear receptor coactivator 1 (P37231 whole entry): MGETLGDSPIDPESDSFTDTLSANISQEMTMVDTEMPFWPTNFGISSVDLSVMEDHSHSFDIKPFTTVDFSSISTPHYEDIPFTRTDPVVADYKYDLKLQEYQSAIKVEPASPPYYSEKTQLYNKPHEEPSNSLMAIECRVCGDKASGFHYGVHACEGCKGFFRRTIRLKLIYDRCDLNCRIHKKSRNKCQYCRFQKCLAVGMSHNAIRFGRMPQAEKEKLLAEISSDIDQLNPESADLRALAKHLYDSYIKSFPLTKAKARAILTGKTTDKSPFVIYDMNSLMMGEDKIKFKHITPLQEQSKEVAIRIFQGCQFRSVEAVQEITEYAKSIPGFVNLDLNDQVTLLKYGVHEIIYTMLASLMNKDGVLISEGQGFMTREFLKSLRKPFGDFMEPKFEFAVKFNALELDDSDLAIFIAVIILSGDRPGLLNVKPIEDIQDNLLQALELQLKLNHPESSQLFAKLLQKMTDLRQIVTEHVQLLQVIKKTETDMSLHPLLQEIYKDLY
Sequence of Peroxisome proliferator-activated receptor gamma/Nuclear receptor coactivator 1 (Q15788 whole entry, further chain): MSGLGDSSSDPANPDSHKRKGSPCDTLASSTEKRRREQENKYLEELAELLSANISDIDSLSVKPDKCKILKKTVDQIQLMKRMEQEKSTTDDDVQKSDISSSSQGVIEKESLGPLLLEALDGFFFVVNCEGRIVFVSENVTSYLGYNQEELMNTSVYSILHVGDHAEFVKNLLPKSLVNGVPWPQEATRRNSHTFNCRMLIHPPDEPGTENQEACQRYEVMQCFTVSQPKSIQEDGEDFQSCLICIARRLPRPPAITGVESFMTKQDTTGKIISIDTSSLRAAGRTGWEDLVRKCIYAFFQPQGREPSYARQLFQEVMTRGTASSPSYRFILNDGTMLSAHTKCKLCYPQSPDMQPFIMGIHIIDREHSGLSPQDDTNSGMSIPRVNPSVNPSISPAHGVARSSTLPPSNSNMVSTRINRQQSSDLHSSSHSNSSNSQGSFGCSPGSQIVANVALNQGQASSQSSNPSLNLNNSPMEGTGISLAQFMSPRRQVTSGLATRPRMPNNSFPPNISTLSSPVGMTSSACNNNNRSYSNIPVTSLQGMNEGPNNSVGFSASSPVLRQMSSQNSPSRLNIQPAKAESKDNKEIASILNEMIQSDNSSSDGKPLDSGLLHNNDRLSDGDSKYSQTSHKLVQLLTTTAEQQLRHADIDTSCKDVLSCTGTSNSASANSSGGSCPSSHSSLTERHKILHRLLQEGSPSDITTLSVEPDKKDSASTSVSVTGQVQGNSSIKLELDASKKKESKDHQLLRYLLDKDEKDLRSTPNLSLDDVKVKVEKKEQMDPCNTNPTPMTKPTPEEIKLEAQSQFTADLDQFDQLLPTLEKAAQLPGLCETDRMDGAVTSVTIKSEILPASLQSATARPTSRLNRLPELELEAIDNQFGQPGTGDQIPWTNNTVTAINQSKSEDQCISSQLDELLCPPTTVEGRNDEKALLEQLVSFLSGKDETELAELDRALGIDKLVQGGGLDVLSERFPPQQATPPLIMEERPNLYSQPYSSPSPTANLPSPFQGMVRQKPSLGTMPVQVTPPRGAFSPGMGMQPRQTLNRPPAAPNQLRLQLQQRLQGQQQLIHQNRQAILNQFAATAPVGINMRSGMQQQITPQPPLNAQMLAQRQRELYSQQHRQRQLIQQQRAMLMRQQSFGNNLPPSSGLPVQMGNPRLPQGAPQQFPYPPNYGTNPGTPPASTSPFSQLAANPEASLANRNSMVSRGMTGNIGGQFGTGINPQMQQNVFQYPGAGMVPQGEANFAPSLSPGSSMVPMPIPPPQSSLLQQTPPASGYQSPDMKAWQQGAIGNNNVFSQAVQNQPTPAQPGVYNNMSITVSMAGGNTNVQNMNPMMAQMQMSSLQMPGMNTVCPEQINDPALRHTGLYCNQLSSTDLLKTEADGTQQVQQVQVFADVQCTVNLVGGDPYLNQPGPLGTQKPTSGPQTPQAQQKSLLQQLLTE
Sequence of Peroxisome proliferator-activated receptor gamma/Nuclear receptor coactivator 2 (P37231 whole entry): as the sequence (P37231 whole entry) above
Sequence of Peroxisome proliferator-activated receptor gamma/Nuclear receptor coactivator 2 (Q15596 whole entry, further chain): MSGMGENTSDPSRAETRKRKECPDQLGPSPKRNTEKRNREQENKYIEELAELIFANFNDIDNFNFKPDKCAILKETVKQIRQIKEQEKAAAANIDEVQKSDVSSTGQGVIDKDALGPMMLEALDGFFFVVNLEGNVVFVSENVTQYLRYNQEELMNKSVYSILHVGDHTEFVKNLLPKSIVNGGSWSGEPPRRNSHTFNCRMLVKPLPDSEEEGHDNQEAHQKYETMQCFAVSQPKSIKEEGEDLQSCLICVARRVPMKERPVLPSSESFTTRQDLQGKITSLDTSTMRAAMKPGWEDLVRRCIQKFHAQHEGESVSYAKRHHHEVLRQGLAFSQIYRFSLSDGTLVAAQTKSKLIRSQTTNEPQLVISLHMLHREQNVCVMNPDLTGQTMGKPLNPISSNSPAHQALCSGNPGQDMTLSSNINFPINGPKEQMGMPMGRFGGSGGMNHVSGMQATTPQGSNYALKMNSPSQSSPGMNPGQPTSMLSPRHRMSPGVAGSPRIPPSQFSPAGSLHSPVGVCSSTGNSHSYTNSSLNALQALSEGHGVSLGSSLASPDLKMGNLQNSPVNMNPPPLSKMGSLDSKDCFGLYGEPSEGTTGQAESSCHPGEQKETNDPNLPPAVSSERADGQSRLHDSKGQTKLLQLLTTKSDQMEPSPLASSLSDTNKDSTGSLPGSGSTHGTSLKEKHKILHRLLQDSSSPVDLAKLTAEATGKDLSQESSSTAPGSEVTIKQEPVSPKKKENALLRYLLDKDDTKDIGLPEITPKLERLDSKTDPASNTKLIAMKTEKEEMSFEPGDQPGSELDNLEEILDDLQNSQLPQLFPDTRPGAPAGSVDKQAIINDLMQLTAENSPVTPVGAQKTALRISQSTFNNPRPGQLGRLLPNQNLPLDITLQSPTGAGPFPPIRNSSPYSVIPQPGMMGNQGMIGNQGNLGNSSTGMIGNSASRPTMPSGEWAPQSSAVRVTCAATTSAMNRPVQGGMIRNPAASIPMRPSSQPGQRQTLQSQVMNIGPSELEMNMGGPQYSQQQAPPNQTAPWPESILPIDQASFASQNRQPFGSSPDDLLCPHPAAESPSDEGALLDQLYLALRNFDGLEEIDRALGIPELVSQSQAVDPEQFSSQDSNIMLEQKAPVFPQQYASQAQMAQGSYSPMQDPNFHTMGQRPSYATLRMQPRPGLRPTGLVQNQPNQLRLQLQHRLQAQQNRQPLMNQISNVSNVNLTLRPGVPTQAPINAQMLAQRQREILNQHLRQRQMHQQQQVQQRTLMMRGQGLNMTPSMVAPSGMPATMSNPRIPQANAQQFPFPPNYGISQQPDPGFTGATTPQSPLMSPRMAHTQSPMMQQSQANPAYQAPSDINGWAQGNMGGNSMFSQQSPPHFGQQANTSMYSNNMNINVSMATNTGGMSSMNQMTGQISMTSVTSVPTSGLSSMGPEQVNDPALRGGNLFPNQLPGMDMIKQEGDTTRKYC
Sequence of Cytochrome P450 3A4 (P08684 whole entry): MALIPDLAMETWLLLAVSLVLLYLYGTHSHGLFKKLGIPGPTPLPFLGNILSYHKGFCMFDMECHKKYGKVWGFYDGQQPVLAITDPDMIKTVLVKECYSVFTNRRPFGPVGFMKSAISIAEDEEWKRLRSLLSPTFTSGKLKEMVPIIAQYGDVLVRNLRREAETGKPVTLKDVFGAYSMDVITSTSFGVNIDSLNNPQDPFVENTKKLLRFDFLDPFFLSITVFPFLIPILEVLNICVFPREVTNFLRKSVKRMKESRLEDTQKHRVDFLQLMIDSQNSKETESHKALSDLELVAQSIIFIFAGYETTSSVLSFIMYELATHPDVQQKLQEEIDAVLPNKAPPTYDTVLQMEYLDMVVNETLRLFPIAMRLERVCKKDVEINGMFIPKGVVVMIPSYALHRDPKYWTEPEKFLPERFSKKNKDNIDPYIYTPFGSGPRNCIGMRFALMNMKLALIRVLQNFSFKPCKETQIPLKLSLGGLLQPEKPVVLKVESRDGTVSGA
T3 sequence (P11940 whole entry, the tested form may be a part): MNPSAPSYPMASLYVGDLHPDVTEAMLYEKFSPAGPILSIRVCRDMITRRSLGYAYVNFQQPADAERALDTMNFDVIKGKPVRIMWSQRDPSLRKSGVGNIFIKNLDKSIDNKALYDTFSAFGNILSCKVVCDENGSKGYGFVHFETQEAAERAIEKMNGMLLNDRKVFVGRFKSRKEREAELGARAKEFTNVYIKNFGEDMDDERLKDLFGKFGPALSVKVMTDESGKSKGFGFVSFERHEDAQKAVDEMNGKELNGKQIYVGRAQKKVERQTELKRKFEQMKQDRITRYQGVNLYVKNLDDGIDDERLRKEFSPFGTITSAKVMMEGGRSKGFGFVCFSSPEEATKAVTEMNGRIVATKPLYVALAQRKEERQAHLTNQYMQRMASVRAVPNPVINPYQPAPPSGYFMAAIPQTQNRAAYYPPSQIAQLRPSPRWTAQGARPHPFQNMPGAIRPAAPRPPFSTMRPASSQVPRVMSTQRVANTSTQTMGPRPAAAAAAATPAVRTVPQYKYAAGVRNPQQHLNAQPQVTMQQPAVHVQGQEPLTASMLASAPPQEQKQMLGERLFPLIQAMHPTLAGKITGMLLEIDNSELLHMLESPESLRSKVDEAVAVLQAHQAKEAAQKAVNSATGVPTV

One may read the AC50 as the concentration giving half of the maximal activity seen. Regarding `CCN(CC(=O)Nc1cc(Cl)ccc1C)C(=O)c1ccc(=O)n(Cc2ccccc2)n1`, the AC50 is 3.23 µM (active) in data set [1], 4.27 µM (active) in data set [2], 9.4 µM (active) in [3] and 5.05 µM (active) in data set [4].
In general, EC50 refers to the concentration that produces a half-maximal response. As to `CCOC(=O)c1c(-c2ccc(C)cc2)csc1NC(=O)CCN1CCOCC1`, the EC50 was > 150 µM (not active) in data set [5] and 65.4 µM (active) in [7]. The IC50 in data set [6] is on record as > 50 µM (not active).
For `Cc1cccc2cc(CN(Cc3ccc4c(c3)OCO4)Cc3nnnn3C3CCCC3)c(=O)[nH]c12`, the EC50 in [8], in [9] and in data set [10] was > 79.4 µM (not active) in each case.
For the compound `COc1ccc(NC(=O)Nc2ccc(OCc3ccccc3)cc2)cn1`, the 50% effective concentration (EC50) in [11] is 17.9 µM (active); in [14], 29.2 µM (active). For the same compound, the results for the IC50 in data set [12] and in data set [13] were 20 µM (active) and > 66 µM (inactive), respectively.
On to `C[C@@]12CC[C@@H]3[C@H](CCC4=CC(=O)CC[C@]43C)[C@@H]1CC[C@@H]2C(=O)Cn1cnc2c(S)ncnc21`, for which the AC50 entry in data set [15] is on record as “inconclusive”.
As to `O=C(Nc1cnccn1)c1cccc(C(F)(F)F)c1`, the EC50 in data set [8], in [9] and in [10] was > 79.4 µM (not active) throughout.
Regarding `CC(NC(=O)c1cc(S(=O)(=O)N(C)C)ccc1N1CCCC1)C1CC2CCC1C2` (centres undefined), the AC50 in data set [1] is 4.03 µM (active); in data set [2] it was 2.74 µM (active); in data set [3] it was 7.68 µM (active); in [4], 4.89 µM (active).
`CCOc1ccc(OCC)c(NC(=O)C2CCCN(S(=O)(=O)c3c[nH]cn3)C2)c1` (centres undefined): the IC50 in data set [6] is > 50 µM (not active).
In the case of `CC(C)SC1=NSC2=NC(=O)/C(=C\c3c[nH]c4ccccc34)C(=N)N21`, the results for the EC50 in data set [11] and in [14] were > 300 µM (not active) and 18.6 µM (active), respectively.
As to `NCCCC[C@@H]1NC(=O)c2cc([N+](=O)[O-])cc(F)c2NCCCC[C@@H](C(N)=O)NC(=O)CNC1=O`, the IC50 in data set [16] was > 20 µM (inactive).
For `Cc1ccc(NCC(O)C(O)C(O)CO)c(N=Nc2ccccc2)c1C` (centres undefined), in data set [6], the IC50 is on record as > 50 µM (not active).
For the compound `CC(=O)OCC(=O)[C@]12OC(C)(C)O[C@@H]1C[C@H]1[C@H]3CC=C4C[C@@H](O)CC[C@]4(C)[C@H]3CC[C@]12C`, the concentration at half-maximal activity (AC50) in data set [17] is 7.94 µM (inconclusive); in data set [15] it was “inconclusive”.
Regarding `COc1ccc(OC)c(C2Nc3c(Cl)ccc(C(=O)O)c3C3C=CCC32)c1` (centres undefined), the EC50 in [11] was 40.7 µM (active); in data set [14], > 300 µM (not active).
With `Cc1ccc(-n2c(C)nc3c(cnn3-c3ccc(F)cc3)c2=O)cc1C`, the half-maximal activity concentration (AC50) was 15.8 µM (inconclusive) in [17], “inconclusive” in [15] and 15.8 µM (inconclusive) in data set [18].
Take `CC(C)NC(=O)N1CCC2(CC1)CCN(C(=O)c1cccc(F)c1)CC2`: the AC50 entry in data set [15] is recorded as “inconclusive”.
As for `COC(=O)c1nnc(NC(=O)c2ccc(Br)cc2)[nH]1`, in data set [6], the IC50 is 0.0137 µM (active).
`COc1cccc(-c2cc(C(=O)N3CCCCCC3)no2)c1`: the results for the concentration at half-maximal activity (AC50) in data set [19] and in data set [20] were 16.7 µM (active) and 10.3 µM (active), respectively.
Regarding `CC1CCCN(c2nc3ccccc3nc2C(C#N)S(=O)(=O)c2cccs2)C1` (centres undefined), the EC50 in data set [11] is 11.2 µM (inconclusive); in data set [14], 7.02 µM (inconclusive). The IC50 in [12] and in data set [13] was > 66 µM (inactive) in each case.
With `CN1CC(c2ccccc2)C2(COc3ccccc3C2=O)C12C(=O)Nc1ccccc12` (centres undefined), the AC50 in data set [1] is 3.46 µM (active); in data set [2] it was 2.66 µM (active); in data set [18], 20 µM (inconclusive); in [3], 5.51 µM (active); in data set [4], 4.14 µM (active).
For `CC(=O)CCc1ccc(OC(=O)c2cccnc2)cc1`, the EC50 in data set [8], in data set [9] and in data set [10] was > 79.4 µM (not active) in each case.
Regarding `COc1ccc(C(=O)Nc2cc(C)c3c(=O)oc4ccccc4c3n2)cc1`, the EC50 in data set [8] is given as 82.8 µM (not active); in [9], > 79.4 µM (not active); in data set [10], > 79.4 µM (not active).
In the case of `CC(C)Cn1cc(C(=O)NCCCN2CCC(C)CC2)c2c3ccccc3n(C)c2c1=O`, in [16], the IC50 is > 20 µM (inactive).
Take `CCCCN(CCCC)CCC(O)c1cc2c(Cl)cc(Cl)cc2c2cc(C(F)(F)F)ccc12` (centres undefined) [HALOFANTRINE HYDROCHLORIDE]: the AC50 is 20 µM (inconclusive) in data set [21], 7.27 µM (active) in [23] and 6.51 µM (active) in data set [24]. Further, in [22], the CC50 is > 40 µM (active). In addition, the IC50 in data set [16] is > 20 µM (inactive).

The record behind these values is ChEMBL document CHEMBL1201862, “PubChem BioAssay data set” (2004).
